Test results published in US9422238B2, “ICMT inhibitors” (National University of Singapore, priority 2012, dated 2016).
Like-named read-outs stand apart in the source and are kept apart here.

Legend:
[1] = test system: Balb/c mice
Experimental: Animals were given free access to water and standard feed. […] The test compound was administered intraperitoneally using a 23G gauge needle to the animal in a volume of vehicle that was tagged to the body weight, namely 0.2 mL for 20 g animal and so on. The vehicle was formulated from ethanol, PEG 400 (Sigma Aldrich) and 5% dextrose (Sigma Aldrich) in the ratio 1:6:3. The test compound was first dissolved in ethanol, PEG400 was added and the solution was vortexed, followed by 5% dextrose and further vortexing. The solutions were freshly prepared before administration.

[2] = Pharmacokinetic study, IP; assay type: in vivo, mice; details: for detection in plasma at late time points: IP; for half-life / AUC / Tmax / Cmax: female, mouse, plasma; for half-life: Balb/c
[3] = test system: PC3 cells; test: Cell cycle analysis by flow cytometry; assay type: cell-based, human; details: PC3, 48 h
Experimental: PC3 cells were seeded at 100 000 cells/mL per well in 6-well plates with media DMEM (high glucose, 10% FBS, 50 μg/mL penicillin, 50 μg/mL streptomycin) and incubated (24 h, 37° C., 5% CO2) to allow cell attachment after which they were treated with test compound (in DMEM, high glucose, 5% FBS, 50 μg/mL penicillin, 50 μg/mL streptomycin) for 48 h. Final volume of DMSO per well was 0.05% v/v. Control wells (without test compound) were similarly treated. After the specified time, supernatant in the well was collected; the cell pellet was trypsinized, combined with the supernatant and pelleted by centrifugation (150 g, 5 min). After rinsing the pellet twice with ice-cold 1×PBS, the cells were suspended in 0.3 mL PBS, to which was added dropwise and with gentle shaking, cold ethanol (0.7 mL) to give a final concentration of 70% ethanol. The cell sample was then kept at 4° C. overnight after which it was centrifuged (150 g, 5 min), the supernatant was removed, the pellet rinsed with cold PBS and re-suspended in a solution of 100 μg/mL propidium iodide (PI, Sigma Aldrich, Singapore) and 0.1 mg/mL ribonuclease A (Sigma Aldrich, Singapore) in PBS (500 μL). The suspension was kept in the dark for 1 h, 25° C. (room temperature) before being analyzed for distribution in the G1,S, G2/M phases on a FCS500 flow cytometer (Beckman Coulter, CA) using the FlowJo® software (http: http://www.flowjo.com/) Each test compound was evaluated at 4 concentrations with 2 repeats per concentration.

[4] = In vitro metabolite structure identification; assay type: in vitro ADME; details: rat liver microsomes, 45 min, LC/MS/MS
Experimental: The test compound was incubated with rat liver microsomes for 45 minutes, after which aliquots were analyzed by LC/MS/MS for the presence of metabolites. The test compound was incubated with pooled rat liver microsomes (BD Gentest Corp, Woburn, Mass.) in a mixture (final volume 500 μL) comprising the following: rat liver microsomes (7.5 μL of 20 mg microsomal protein to give final concentration of 0.3 mg microsome protein/mL), test compound (2.5 μL of 1 mM test compound in acetonitrile to give final concentration of […]) and phosphate buffer (440 μL of 0.1 M, pH 7.4, containing 1 mM EDTA). The mixture was preincubated for 5 min at 37° C. in a shaking water bath, after which-reaction was initiated by adding 50 μL of 10 mM NADPH (freshly prepared in phosphate buffer) to give a final concentration of 1 mM NADPH in the mixture. Aliquots of 50 μL were withdrawn immediately on addition of NADPH (time 0) and 45 min later. On removal of the sample, reaction was quenched by addition of chilled methanol (100 μL). The mixture was then centrifuged at 10,000 g to remove the protein and the supernatant was analyzed by LC-MS-MS.
Liquid chromatography was performed on an Agilent® 1200 series HPLC system interfaced with a QTRAP 3200 triple quadruple mass spectrometer (Applied Biosystems, Foster City, Calif.). […]

[5] = female, Balb/c, mouse, in vivo, ip, 24 h
[6] = Balb/c mice, 20 mg/kg IP, 20 mg/kg

## CCCCCCCCn1cc(CC(N)=O)c2cc(-c3cccc(C)c3)ccc21 [Cysmethynil, 2-[5-(3-methylphenyl)-1-octyl-1H-indolo-3-yl]acetamide, reference compound]
[1]; [5]
  maximal tolerated dose: exceeded 100 kg/kg
[1]; mouse, in vivo, ip
  tolerability: well tolerated at all doses
[2]; Balb/c mice, 20 mg/kg IP
  Clearance: 0.395 mL/min/kg
  AUC: 843 µg·h/mL
  Tmax: 0.75 h
  Cmax: 210 µg/mL
[2]; [6]
  T1/2: 1.55 h
  Volume of Distribution: 0.0529 L/kg
[2]; Balb/c mice, 20 mg/kg IP, listed as cysmethynil, 20 mg/kg
  Volume of Distribution: 0.053 L/kg
[2]; Balb/c mice, 100 mg/kg IP
  Clearance: 0.217 mL/min/kg
  Volume of Distribution: 0.0799 L/kg
  AUC: 7690 µg·h/mL
  Tmax: 0.75 h
  Cmax: 1160 µg/mL
[2]; Balb/c mice
  detection in plasma at late time points: could not be detected in plasma beyond this time
[2]; ip, 20 mg/kg, Balb/c mice, 20 mg/kg IP, read-out: T1/2 (converted)
  half-life: 1.6 h
[2]; ip, 100 mg/kg, Balb/c mice, 100 mg/kg IP, read-out: T1/2 (converted)
  half-life: 4.3 h
[3]
  effect on cell cycle distribution: the changes in G1/G2 cell populations were not statistically significant
[3]; 12.5 μM
  % Cells in G1 phase: 53.0 (2) %
  % Cells in G2 phase: 27.87 (2) %
[3]; 17.5 μM
  % Cells in G1 phase: 51.83 (2) %
  % Cells in G2 phase: 26.85 (12.28, 3) %
[3]; 20.0 μM
  % Cells in G1 phase: 54.85 ( 2) %
  % Cells in G2 phase: 32.07 (2) %
[4]
  metabolites found: 4 mono-oxygenated/hydroxylated metabolites (A-D)

## CCCCCCCCn1cc(CN(CC)CC)c2cc(-c3cnc(N)nc3)ccc21 [Compound 8-12, 5-(3-Diethylaminomethyl-1-octyl-1H-indol-5-yl)-pyrimidin-2-ylamine]
[1]; [5]
  tolerability: well tolerated at 10, 20 and 50 mg/kg
[1]; mice, IP
  apparent maximal tolerated dose: 100 mg/kg
[2]; 10 mg/kg or 25 mg/kg IP
  time to peak concentration in plasma: within an hour
[2]; Balb/c mice, 10 mg/kg IP
  Clearance: 6.67 mL/min/kg
  AUC: 24.6 µg·h/mL
  Tmax: 0.25 h
  Cmax: 17.9 µg/mL
[2]; Balb/c mice, 25 mg/kg IP
  Clearance: 10.1 mL/min/kg
  Volume of Distribution: 1.185 L/kg
  AUC: 40.8 µg·h/mL
  Tmax: 0.75 h
  Cmax: 17.4 µg/mL
[2]; Balb/c mice
  detection in plasma at late time points: not detected after 24 h and 48 h
[2]; intraperitoneal, summary, treated mice, read-out: half life
  half-life: < 1 h
[2]; ip, 10 mg/kg or 25 mg/kg IP, estimated, read-out: half life
  half-life: < 3 h
[2]; ip, 10 mg/kg, Balb/c mice, 10 mg/kg IP, read-out: T1/2 (converted)
  half-life: 1.25 h
[2]; ip, 25 mg/kg, Balb/c mice, 25 mg/kg IP, read-out: T1/2 (converted)
  half-life: 1.36 h
[3]
  effect on cell cycle distribution: increased cells in the G1 phase while decreasing cells in G2 phase
[3]; 0.8 μM
  % Cells in G1 phase: 52.92 (2) %
  % Cells in G2 phase: 24.22 (2) %
[3]; 1.0 μM
  % Cells in G1 phase: 59.98 (2)^3%
  % Cells in G2 phase: 26.99 (2.77, 3) %
[3]; 2.0 μM
  % Cells in G1 phase: 66.45 (2)^3%
  % Cells in G2 phase: 11.20 (2)^3%
[4]
  metabolites found: four metabolites were proposed
